Values quoted from earlier work in patent US20120195873A1, “METHODS OF A[…] LOSS OF […]” (NESTEC S.A., priority 2009, published 2012).

Experiments:
skeletal muscle [1] = conditions: animal data, exogenous 25-OH
skeletal muscle [2] = conditions: vitamin D deficient rats
type II muscle fibers = conditions: vitamin D deficient patients, pre- vs post-supplementation
[3] = system: lower extremity muscle performance; conditions: elderly; amounts bringing mean serum 25-OH Vitamin D to 66-84 nmol/L
[4] = 400 mg twice daily; heavy exercise, calcium loss through sweat

25-Hydroxy Vitamin D [25-OH]
skeletal muscle protein synthesis (skeletal muscle [1]): increases skeletal muscle protein synthesis

vitamin D
muscle mass (skeletal muscle [2]): increased muscle mass
rate of myofibrillar protein degradation (skeletal muscle [2]): decreased rate of myofibrillar protein degradation
weight gain (skeletal muscle [2]): weight gain
atrophy of type II muscle fibers in biopsies (type II muscle fibers): significant improvements were observed post-supplementation
lower extremity muscle performance [3]: improves lower extremity muscle performance

O=C([O-])[O-].[Ca+2] [calcium carbonate]
offset of exercise-induced net calcium loss [4]: sufficient to offset this loss
